Source: publication PMC10698726 (Molecular Pharmaceutics, 2023)

B1: OCT1 (Homo sapiens) (protein)
chain: MPTVDDILEQVGESGWFQKQAFLILCLLSAAFAPICVGIVFLGFTPDHHCQSPGVAELSQRCGWSPAEELNYTVPGLGPAGEAFLGQCRRYEVDWNQSALSCVDPLASLATNRSHLPLGPCQDGWVYDTPGSSIVTEFNLVCADSWKLDLFQSCLNAGFLFGSLGVGYFADRFGRKLCLLGTVLVNAVSGVLMAFSPNYMSMLLFRLLQGLVSKGNWMAGYTLITEFVGSGSRRTVAIMYQMAFTVGLVALTGLAYALPHWRWLQLAVSLPTFLFLLYYWCVPESPRWLLSQKRNTEAIKIMDHIAQKNGKLPPADLKMLSLEEDVTEKLSPSFADLFRTPRLRKRTFILMYLWFTDSVLYQGLILHMGATSGNLYLDFLYSALVEIPGAFIALITIDRVGRIYPMAMSNLLAGAACLVMIFISPDLHWLNIIIMCVGRMGITIAIQMICLVNAELYPTFVRNLGVMVCSSLCDIGGIITPFIVFRLREVWQALPLILFAVLGLLAAGVTLLLPETKGVALPETMKDAENLGRKAKPKENTIYLKVQTSEPSGT

Key:
OCT2 = test system: OCT2; parameters: method as in PMID 34884800; conditions: cited from earlier work
OCT1 = test system: OCT1; parameters: method as in PMID 34884800; conditions: cited from earlier work
[1] = substrate: CCC(CO)NCCNC(CC)CO; test: cells, lysate or membranes named; conditions: other: OCT1, 2 min uptake, this study

Molecule | difference in the inhibition of OCT2 between enantiomers (OCT2) | difference in the inhibition of OCT1 between enantiomers (OCT1) | Km [1] [µM] | Vmax [1] [µmol/min/mg]
CCCC(C(=O)c1ccccc1)N1CCCC1 (stereo not drawn) [α-pyrrolidinovalerophenone] | no difference | twofold difference | – | –
B1 | – | – | 167 | 0.00235
